Patent US20080262041A1, “Beta-Lactams for Treatment of Cns Disorders” (priority 2003, published 2008)
Like-named read-outs stand apart in the source and are kept apart here.

What was measured:
[1] = target: T1, recombinant human NK1 receptors (Homo sapiens, UniProt P25103); test: NK1 receptor binding affinity, scintillation proximity assay (SPA), displacement of [125I]Tyr8-Substance P; settings: average of at least two determinations, CHO cell membranes, read-out: pKi (negative logarithm of the inhibition constant), NK1 receptor SPA binding (converted)
T1 construct: expressed in transfected cells; host or cells: CHO cells (membranes)
Text: NK1-receptor binding affinity has been determined in vitro in a binding Scintillation proximity assay (SPA) by measuring the compounds' ability to displace [^125I]Tyr8-Substance P (SP) from recombinant human NK1 receptors stably expressed in Chinese Hamster Ovary (CHO) cell membranes prepared by using a modification of the method described by Beattie D. T. et al. (Br. J. Pharmacol, 116:3149-3157, 1995). Briefly, polystyrene Leadseeker WGA-SPA beads (Amersham Biosciences) were mixed with cell membranes in a bead/membrane ratio of 50:1 (w/w) in assay buffer (75 mM Tris pH 7.8, 75 mM NaCl, 4 mM MnCl2, 1 mM EDTA, 0.05% Chaps, 1 mM PMSF). The mixture was placed on ice for 30 minutes to allow the formation of membrane/bead complex before BSA was added to a final concentration of 1%. After another 30 minutes incubation on ice, the bead/membrane complex was washed twice and suspended in assay buffer. [^125I]Tyr8-Substance P (2200 Ci/mmol, PerkinElmer) was then added to the bead/membrane complex with a final concentration of 0.4 nM. 30 ul of the resulting mixture was then dispensed to each well of Nalgen NUNC 384-well plate with 1 ul compound pre-dispensed in DMSO. The plates were then sealed and pulse centrifuged at 1100 rpm. After 3 hours incubation at room temperature with shaking, the plates were centrifuged for 2 min at 1100 rpm and measured in Viewlux imager (PerkinElmer) for 5 minutes with a 618-nm filter. Inhibition of [^125I]Tyr8-Substance P binding to NK1-receptors was measured by the reduction of luminescent signal. IC50 values of each compound were determined by an 11-point 3×-dilution inhibition curve. pKi values were calculated using the KD of [^125I]Tyr8-Substance P determined in a separate experiment.
The affinity of the compound of the invention for the NK1 receptor was determined using the NK1 receptor binding affinity method (Scintillation proximity assay (SPA)) measured in vitro by the compounds' ability to displace [^125I]Tyr8-Substance P (SP) from recombinant human NK1 receptors expressed in Chinese Hamster Ovary (CHO) cell membranes. The affinity values are expressed as negative logarithm of the inhibition constant (pKi) of displacer ligands.

[2] = target: T2, recombinant human serotonin transporter (Homo sapiens, UniProt P31645); test: hSERT binding affinity, displacement of [3H]-citalopram
T2 construct: expressed in transfected cells; host or cells: porcine LLCPK cells stably transfected with hSERT (membranes)
Method: SERT binding affinity has been determined in vitro by the compounds' ability to displace [^3H]-citalopram from hSERT-LLCPK cell membranes. For the binding reaction, a final concentration of 0.25 nM of [^3H] citalopram (84 Ci/mmol, Amersham) was incubated with 3-5 μg/ml of cell membrane and the compound to be tested at different concentrations (7 concentration points in duplicate) in 50 mM Tris HCl, pH 7.7, containing 120 mM NaCl, 5 mM KCl, 10 μM pargyline and 0.1% ascorbic acid. The reaction was performed for 120 min at 22° C. and was terminated through GF/B Unifilter (pre-soaked in 0.5% PEI) using a Cell Harvester (Tomtec). Scintillation fluid was added to each filtered spot and radioactivity was determined using a scintillation counter (TopCount (Packard)). Non-specific binding was determined using paroxetine (10 μM) and represents about 2-5% of the total binding. Competition experiments were conducted with duplicate determination for each point. Msat601 software package was used to elaborate the competition binding data. IC50 values were converted to Ki values using the Cheng-Prusoff equation and by using the KD of [^3H]citalopram determined in separate experiments.
The affinity of the compounds of the invention for the serotonin transporter was determined using the hSERT binding affinity method and measuring in vitro the compounds' ability to displace [^3H]-citalopram from recombinant human serotonin transporter expressed in Porcine Epithelial Kidney LLCPK cell membranes. The affinity values are expressed as negative logarithm of the inhibition constant of displacer ligands (pKi).

[3] = average of at least two determinations, [3H]-citalopram, LLCPK cell membranes, read-out: pKi, serotonin transporter binding (converted)

T2 sequence (P31645 whole entry): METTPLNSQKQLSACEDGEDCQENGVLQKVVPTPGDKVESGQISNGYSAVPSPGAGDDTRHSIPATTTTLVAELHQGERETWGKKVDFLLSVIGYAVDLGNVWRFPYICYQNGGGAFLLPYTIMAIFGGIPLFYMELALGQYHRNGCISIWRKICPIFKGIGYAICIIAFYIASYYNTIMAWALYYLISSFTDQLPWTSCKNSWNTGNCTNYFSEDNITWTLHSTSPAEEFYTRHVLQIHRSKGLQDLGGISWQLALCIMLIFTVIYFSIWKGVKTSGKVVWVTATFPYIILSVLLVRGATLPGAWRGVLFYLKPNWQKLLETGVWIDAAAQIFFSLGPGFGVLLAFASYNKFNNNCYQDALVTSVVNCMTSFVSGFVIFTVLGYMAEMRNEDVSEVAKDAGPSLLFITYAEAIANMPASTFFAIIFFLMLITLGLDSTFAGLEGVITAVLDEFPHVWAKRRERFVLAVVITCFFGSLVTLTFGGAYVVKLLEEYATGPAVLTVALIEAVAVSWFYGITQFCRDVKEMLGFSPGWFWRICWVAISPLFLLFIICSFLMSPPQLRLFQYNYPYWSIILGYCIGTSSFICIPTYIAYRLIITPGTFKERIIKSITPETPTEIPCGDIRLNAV
T1 sequence (P25103 whole entry): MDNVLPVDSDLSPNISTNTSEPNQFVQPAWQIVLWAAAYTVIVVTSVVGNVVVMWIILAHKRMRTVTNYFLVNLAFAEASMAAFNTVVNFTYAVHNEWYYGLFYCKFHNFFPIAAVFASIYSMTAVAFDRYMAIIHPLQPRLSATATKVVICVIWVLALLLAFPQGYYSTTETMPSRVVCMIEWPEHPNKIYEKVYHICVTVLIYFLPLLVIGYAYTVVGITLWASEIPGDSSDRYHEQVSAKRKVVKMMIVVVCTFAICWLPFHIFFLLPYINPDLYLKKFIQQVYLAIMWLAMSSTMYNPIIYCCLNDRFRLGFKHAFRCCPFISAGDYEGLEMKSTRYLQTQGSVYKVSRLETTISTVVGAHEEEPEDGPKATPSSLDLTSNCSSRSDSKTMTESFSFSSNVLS

Ki [2, 3] | Structure (SMILES) | Ki [1] | Ki [2]
1.26 to 9.12 nM | CC(c1cc(Cl)cc(Cl)c1)N1CC=C(C2(c3ccc(F)cc3)CCNCC2)C1=O (single isomer, unassigned) [Example 5, 1-[1-(3,5-Dichlorophenyl)ethyl]-3-[4-(4-fluorophenyl)-4-piperidinyl]-1,5-dihydro-2H-pyrrol-2-one] | 2.24 to 8.51 nM | 
 | CC(c1cc(Cl)cc(Cl)c1)N1CC=C(C2(c3ccc(F)cc3)CCN(C)CC2)C1=O (single isomer, unassigned) [Example 11, 1-[1-(3,5-Dichlorophenyl)ethyl]-3-[4-(4-fluorophenyl)-1-methyl-4-piperidinyl]-1,5-dihydro-2H-pyrrol-2-one] | 2.24 to 8.51 nM | 1.26 to 9.12 nM
1.26 to 9.12 nM | O=C1C(C2(c3ccc(F)cc3)CCNCC2)=CCN1Cc1cc(Cl)cc(Cl)c1 [Example 1, 1-[(3,5-Dichlorophenyl)methyl]-3-[4-(4-fluorophenyl)-4-piperidinyl]-1,5-dihydro-2H-Pyrrol-2-one] | 2.24 to 8.51 nM | 
 | CN1CCC(C2=CCN(Cc3cc(Cl)cc(Cl)c3)C2=O)(c2ccc(F)cc2)CC1 [Example 3, 1-[(3,5-Dichlorophenyl)methyl]-3-[4-(4-fluorophenyl)-1-methyl-4-piperidinyl]-1,5-dihydro-2H-pyrrol-2-one] | 2.24 to 8.51 nM | 1.26 to 9.12 nM
1.26 to 9.12 nM | C[C@@H](c1cc(Cl)cc2ccccc12)N1CC=C(C2(c3ccc(F)cc3)CCNCC2)C1=O [Example 6, 1-[(1S)-1-(3-Chloro-1-naphthalenyl)ethyl]-3-[4-(4-fluorophenyl)-4-piperidinyl]-1,5-dihydro-2H-pyrrol-2-one] | 2.24 to 8.51 nM | 
 | C[C@H](c1cc(Cl)cc2ccccc12)N1CC=C(C2(c3ccc(F)cc3)CCN(C)CC2)C1=O [Example 15, 1-[(1R)-1-(3-Chloro-1-naphthalenyl)ethyl]-3-[4-(4-fluorophenyl)-1-methyl-4-piperidinyl]-1,5-dihydro-2H-pyrrol-2-one] | 2.24 to 8.51 nM | 1.26 to 9.12 nM
 | CN1CCC(C2=CCN(Cc3cc(C#N)cc4ccccc34)C2=O)(c2ccc(F)cc2)CC1 [Example 16, 4-({3-[4-(4-Fluorophenyl)-1-methyl-4-piperidinyl]-2-oxo-2,5-dihydro-1H-pyrrol-1-yl}methyl)-2-naphthalenecarbonitrile] | 2.24 to 8.51 nM | 1.26 to 9.12 nM
